Values quoted from earlier work in patent publication US10976308B2, “Plant-derived nanofibrillar cellulose hydrogel for cell culture and chemical testing” (UPM-KYMMENE CORPORATION, priority 2014, dated 2021).

Columns and labels:
[1] = by Khetani et al. 2013
3D liver models = conditions: by Khetani et al. 2013

Row | SMILES | Cmax [1] [µM] | Toxicity in 3D liver models (3D liver models)
1 | O=C(O)Cc1ccccc1Nc1c(Cl)cccc1Cl [diclofenac] | 8 | 
2 | CN(C)CCCN1c2ccccc2CCc2ccccc21 [imipramine] |  | toxicity is not detected in all 3D models tested
3 | CC(C)NCC(O)COc1cccc2ccccc12 (stereo not shown) [propranolol] | 0.2 | not detected in the 3D liver models
